Patent US10538498B2, “1,3,4-oxadiazole sulfonamide derivative compounds as histone deacetylase 6 inhibitor, and the pharmaceutical composition comprising the same” (Chong Kun Dang Pharmaceutical Corp., priority 2015, dated 2020)

Molecular target: T1, human recombinant HDAC6 (Homo sapiens, UniProt Q9UBN7)
T1 construct: purchased Calbiochem 382180
T1 sequence (Q9UBN7 1-1215): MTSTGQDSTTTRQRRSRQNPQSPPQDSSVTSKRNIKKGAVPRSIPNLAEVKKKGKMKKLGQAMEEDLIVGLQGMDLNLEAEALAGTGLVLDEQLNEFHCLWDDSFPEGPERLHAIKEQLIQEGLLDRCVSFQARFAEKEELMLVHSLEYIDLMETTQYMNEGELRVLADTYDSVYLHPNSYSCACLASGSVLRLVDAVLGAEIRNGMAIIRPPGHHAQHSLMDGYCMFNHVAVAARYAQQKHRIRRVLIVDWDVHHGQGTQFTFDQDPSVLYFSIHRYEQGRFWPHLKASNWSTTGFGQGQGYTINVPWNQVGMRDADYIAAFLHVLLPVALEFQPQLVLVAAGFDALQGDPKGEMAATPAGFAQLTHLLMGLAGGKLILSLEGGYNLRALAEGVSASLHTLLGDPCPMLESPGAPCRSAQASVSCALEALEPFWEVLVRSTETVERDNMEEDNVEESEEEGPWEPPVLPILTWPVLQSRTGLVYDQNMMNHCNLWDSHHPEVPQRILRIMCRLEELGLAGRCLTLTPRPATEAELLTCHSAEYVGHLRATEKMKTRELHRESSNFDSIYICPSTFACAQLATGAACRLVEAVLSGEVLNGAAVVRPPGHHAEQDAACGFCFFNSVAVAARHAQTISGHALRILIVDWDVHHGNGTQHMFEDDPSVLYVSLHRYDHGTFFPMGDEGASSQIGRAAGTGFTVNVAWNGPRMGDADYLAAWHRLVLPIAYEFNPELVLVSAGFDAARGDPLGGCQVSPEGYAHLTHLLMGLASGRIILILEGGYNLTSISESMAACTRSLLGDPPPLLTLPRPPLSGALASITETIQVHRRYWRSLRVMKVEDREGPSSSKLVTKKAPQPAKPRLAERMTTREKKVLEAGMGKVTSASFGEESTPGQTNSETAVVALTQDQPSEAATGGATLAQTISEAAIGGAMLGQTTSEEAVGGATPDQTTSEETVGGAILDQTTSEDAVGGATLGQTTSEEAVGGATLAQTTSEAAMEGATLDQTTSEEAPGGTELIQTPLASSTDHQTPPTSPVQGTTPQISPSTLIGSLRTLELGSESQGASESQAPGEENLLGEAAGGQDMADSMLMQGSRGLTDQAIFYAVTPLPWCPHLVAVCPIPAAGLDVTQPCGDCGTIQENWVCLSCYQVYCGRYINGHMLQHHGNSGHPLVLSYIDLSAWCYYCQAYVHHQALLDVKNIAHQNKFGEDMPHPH
Test: HDAC6 enzyme activity inhibition assay (HDAC Fluorimetric Drug Discovery Kit)
Assay type: biochemical
Conditions: for HDAC6 selectivity (fold): HDAC1 vs HDAC6; for IC50: same protocol as the HDAC1 enzyme activity test
In short: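 Recombinant enzyme (0.3 μg) was incubated with 5-fold serially diluted compound and 10 μM Fluor de Lys-SIRT1 substrate for 60 min at 30° C. Developer II was then added for 30 min, fluorescence read at Ex 360/Em 460, and IC50 values were calculated.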

Row | Structure (SMILES) | HDAC6 selectivity (fold) | IC50 [nM]
1 | CCn1ncc2ccc(N(Cc3ccc(-c4nnc(C(F)F)o4)cc3)S(C)(=O)=O)cc21 [Compound 11743, N-(4-(5-(difluoromethyl)-1,3,4-oxadiazol-2-yl)benzyl)-N-(1-ethyl-1H-indazol-6-yl)methanesulfonamide] | 1466 | 68.2
2 | CC(C)c1nc2ccc(N(Cc3ccc(-c4nnc(C(F)F)o4)cc3)S(C)(=O)=O)cc2s1 [Compound 11744, N-(4-(5-(difluoromethyl)-1,3,4-oxadiazol-2-yl)benzyl)-N-(2-isopropylbenzo[d]thiazol-6-yl)methanesulfonamide] | 188 | 531
3 | Cn1c(=O)n(C)c2cc(N(Cc3ccc(-c4nnc(C(F)F)o4)cc3)S(C)(=O)=O)ccc21 [Compound 11745, N-(4-(5-(difluoromethyl)-1,3,4-oxadiazol-2-yl)benzyl)-N-(1,3-dimethyl-2-oxo-2,3-dihydro-1H-benzo[d]imidazol-5-yl) methanesulfonamide] | 432 | 231
4 | Cc1nn(C)c2ccc(N(Cc3ccc(-c4nnc(C(F)F)o4)cc3)S(C)(=O)=O)cc12 [Compound 11746, N-(4-(5-(difluoromethyl)-1,3,4-oxadiazol-2-yl)benzyl)-N-(1,3-dimethyl-1H-indazol-5-yl)methanesulfonamide] | 784 | 127
5 | CS(=O)(=O)N(Cc1ccc(-c2nnc(C(F)F)o2)cc1F)c1ccc2c(c1)CCC2 [Compound 11747, N-(4-(5-(difluoromethyl)-1,3,4-oxadiazol-2-yl)-2-fluorobenzyl)-N-(2,3-dihydro-1H-inden-5-yl)methanesulfonamide] | 1050 | 95.2
6 | CS(=O)(=O)N(Cc1ccc(-c2nnc(C(F)F)o2)cc1F)[C@@H]1CCc2ccccc21 [Compound 11748, (R)—N-(4-(5-(difluoromethyl)-1,3,4-oxadiazol-2-yl)-2-fluorobenzyl)-N-(2,3-dihydro-1H-inden-1-yl)methanesulfonamide] | 230 | 433
7 | CS(=O)(=O)N(Cc1ccc(-c2nnc(C(F)F)o2)cc1F)[C@H]1CCc2ccccc21 [Compound 11749, (S)—N-(4-(5-(difluoromethyl)-1,3,4-oxadiazol-2-yl)-2-fluorobenzyl)-N-(2,3-dihydro-1H-inden-1-yl)methanesulfonamide] | 255 | 391
8 | CN1CCc2nc(N(Cc3ccc(-c4nnc(C(F)F)o4)cc3)S(C)(=O)=O)sc2C1 [Compound 11750, N-(4-(5-(difluoromethyl)-1,3,4-oxadiazol-2-yl)benzyl)-N-(5-methyl-4,5,6,7-tetrahydrothiazolo[5,4-c]pyridin-2-yl)methanesulfonamide] | 77 | 1290
9 | O=C(CN1CCN(CCS(=O)(=O)N(Cc2ccc(-c3nnc(C(F)F)o3)cc2)c2ccccc2)CC1)N1CCOCC1 [Compound 11751, N-(4-(5-(difluoromethyl)-1,3,4-oxadiazol-2-yl)benzyl)-2-(4-(2-morpholino-2-oxoethyl)piperazin-1-yl)-N-phenylethane-1-sulfonamide] | 1170 | 85.4
10 | O=S(=O)(CCN1CCCOCC1)N(Cc1ccc(-c2nnc(C(F)F)o2)cc1)c1ccccc1 [Compound 11752, N-(4-(5-(difluoromethyl)-1,3,4-oxadiazol-2-yl)benzyl)-2-(1,4-oxazepan-4-yl)-N-phenylethane-1-sulfonamide] | 868 | 115
11 | O=S(=O)(CCN1CC[C@@H](F)C1)N(Cc1ccc(-c2nnc(C(F)F)o2)cc1)c1ccccc1 [Compound 11753, (R)—N-(4-(5-(difluoromethyl)-1,3,4-oxadiazol-2-yl)benzyl)-2-(3-fluoropyrrolidin-1-yl)-N-phenylethane-1-sulfonamide] | 953 | 105
12 | CN(C)[C@@H]1CCN(CCS(=O)(=O)N(Cc2ccc(-c3nnc(C(F)F)o3)cc2)c2ccccc2)C1 [Compound 11754, (R)—N-(4-(5-(difluoromethyl)-1,3,4-oxadiazol-2-yl)benzyl)-2-(3-(dimethylamino)pyrrolidin-1-yl)-N-phenylethane-1-sulfonamide] | 1420 | 70.4
13 | CN(C)[C@H]1CCN(CCS(=O)(=O)N(Cc2ccc(-c3nnc(C(F)F)o3)cc2)c2ccccc2)C1 [Compound 11755, (S)—N-(4-(5-(difluoromethyl)-1,3,4-oxadiazol-2-yl)benzyl)-2-(3-(dimethylamino)pyrrolidin-1-yl)-N-phenylethane-1-sulfonamide] | 1377 | 72.6
14 | O=S(=O)(CCN1Cc2ccccc2C1)N(Cc1ccc(-c2nnc(C(F)F)o2)cc1)c1ccccc1 [Compound 11756, N-(4-(5-(difluoromethyl)-1,3,4-oxadiazol-2-yl)benzyl)-2-(isoindolin-2-yl)-N-phenylethane-1-sulfonamide] | 264 | 378
15 | CCN1CCN(CCS(=O)(=O)N(Cc2ccc(-c3nnc(C(F)F)o3)cc2)c2ccccc2)CC1 [Compound 11757, N-(4-(5-(difluoromethyl)-1,3,4-oxadiazol-2-yl)benzyl)-2-(4-ethylpiperazin-1-yl)-N-phenylethane-1-sulfonamide] | 1447 | 69.1
16 | COCCN1CCN(CCS(=O)(=O)N(Cc2ccc(-c3nnc(C(F)F)o3)cc2)c2ccccc2)CC1 [Compound 11758, N-(4-(5-(difluoromethyl)-1,3,4-oxadiazol-2-yl)benzyl)-2-(4-(2-methoxyethyl)piperazin-1-yl)-N-phenylethane-1-sulfonamide] | 1039 | 96.2
17 | CC(=O)N1CCCN(CCS(=O)(=O)N(Cc2ccc(-c3nnc(C(F)F)o3)cc2)c2ccccc2)CC1 [Compound 11759, 2-(4-acetyl-1,4-diazepan-1-yl)-N-(4-(5-(difluoromethyl)-1,3,4-oxadiazol-2-yl)benzyl)-N-phenylethane-1-sulfonamide] | 984 | 102
18 | O=S(=O)(CCN1CCCN(Cc2ccccc2)CC1)N(Cc1ccc(-c2nnc(C(F)F)o2)cc1)c1ccccc1 [Compound 11760, 2-(4-benzyl-1,4-diazepan-1-yl)-N-(4-(5-(difluoromethyl)-1,3,4-oxadiazol-2-yl)benzyl)-N-phenylethane-1-sulfonamide] | 508 | 197
19 | O=C(C1CC1)N1CCN(CCS(=O)(=O)N(Cc2ccc(-c3nnc(C(F)F)o3)cc2)c2ccccc2)CC1 [Compound 11761, 2-(4-(cyclopropanecarbonyl)piperazin-1-yl)-N-(4-(5-(difluoromethyl)-1,3,4-oxadiazol-2-yl)benzyl)-N-phenylethane-1-sulfonamide] | 976 | 102
20 | O=S(=O)(CCN1CCC(Cc2ccccc2)CC1)N(Cc1ccc(-c2nnc(C(F)F)o2)cc1)c1ccccc1 [Compound 11762, 2-(4-benzylpiperidin-1-yl)-N-(4-(5-(difluoromethyl)-1,3,4-oxadiazol-2-yl)benzyl)-N-phenylethane-1-sulfonamide] | 100 | 1000
21 | O=S(=O)(CCN1CCC(N2CCOCC2)CC1)N(Cc1ccc(-c2nnc(C(F)F)o2)cc1)c1ccccc1 [Compound 11763, N-(4-(5-(difluoromethyl)-1,3,4-oxadiazol-2-yl)benzyl)-2-(4-morpholinopiperidin-1-yl)-N-phenylethane-1-sulfonamide] | 948 | 105
22 | Cc1noc(C2CCN(CCS(=O)(=O)N(Cc3ccc(-c4nnc(C(F)F)o4)cc3)c3ccccc3)CC2)n1 [Compound 11764, N-(4-(5-(difluoromethyl)-1,3,4-oxadiazol-2-yl)benzyl)-2-(4-(3-methyl-1,2,4-oxadiazol-5-yl)piperidin-1-yl)-N-phenylethane-1-sulfonamide] | 731 | 137
